Experimental data: patent US12528840B2, “Transcription active complex targeting cancer drug from viral protein sequence” (The Regents of the University of California, priority 2020, dated 2026)

Legend:
BCBL-1 PEL cells = assay: Cytokines in ascites of BCBL-1 PEL xenograft mice (Olink inflammatory panel); assay type: in vivo
Description: Also, the effect of peptide on cytokine production by BCBL-1 PEL cells in xenograft mouse model was studied. Acsite was collected from NRG mice baring BCBL-1 PELs, which were either treated with wild type MBK50 (Wt) peptide (n=3), control Mut peptide (n=3) or left untreated (n=3) for 20 days. The levels of cytokines in the ascites were measured by Olink technology using inflammatory panel that can detect 92 inflammatory proteins. Data was analyzed with Olink Insights Stat analysis software. […] Thus, inflammatory protein expression profile of Wt peptide is distinct from the profile of other groups. […] On the right panel in (FIG. 12c), 15 cytokine expression levels expressed in NPX units, Olink's arbitrary unit, on log 2 scale were compared between untreated, mutant peptide and Wt peptide-treated groups.

BCBL-1 PEL cell line = assay: PEL xenograft study in NRG mice
From the text: We mapped the responsible domain and molecular mechanisms with biochemical and genetic approaches (FIG. 1).
Based on cell killing efficacies of the peptide in vitro, we select two peptides and examine the efficacies to inhibit tumor growth in xenograft models. We use a PEL cell xenograft models. […] Standardized PK/PD studies are completed in rat models at the UCD comprehensive cancer center PK/PD core facility.
Amino acid sequence alignment identified homologous protein sequences in other gamma-herpesvirus protein sequence (The Top table in FIG. 8a, also shown in FIG. 2). Based on their alignment, “non-natural” protein sequences were generated by substituting specific amino acids (The peptides are: Wt d1-1, DS 3-1, DE 3-1, and Mut d1-1 (control peptide) from the top to the bottom in the Bottom Table in FIG. 8a). Those four peptides were used in MTT assays in FIG. 8b to examine the effects on cell growth of BCBL-1 […] effusion lymphoma (PEL) cell line. Also tested are three D-amino acid substitutions first two amino acids and c-terminal amino acid (ST d3-1), in comparison with one D-amino acid peptide (N-terminus) (Wt d3-1).

IRF4 = assay: Intracellular staining of IRF4 in LPS-activated THP-1 cells; assay type: cell-based; conditions: THP-1, LPS 100 ng/ml, 16 μM, 24 hours
From the text: (§1) FIG. 16. Effect of MBK50 on MYC and IRF4 expression in LPS-activated monocytic leukemia cell line THP-1 cells. […] MYC and IRF4 expression levels were examined by intracellular staining of MYC and IRF4 with isotype control staining followed by flow cytometry. FIG. 16(a) A scheme of the experimental procedure. FIG. 16(b) A representative histogram overlay for the MYC expression in THP-1 cells treated with MBK50, mutant control peptide or PBS, with isotype control. The average mean fluorescent intensity (MFI) for MYC expression (n=3) for each treatment is shown in the right panel. FIG. 16(c) A representative histogram overlay for the IRF4 expression (red) in THP-1 cells treated with MBK50, mutant control peptide, or PBS, with isotype control (blue). The average MFI for IRF4 expression for each treatment is shown in the right panel.
(§2) MYC is important for monocytic cell proliferation, especially upon LPS stimulation. […] MYC and IRF4 expression levels were examined by intracellular staining of MYC and IRF4 with isotype control staining followed by flow cytometry (FIG. 16a). […] Also, the percentage of THP-1 cells with reduced IRF4 expression was increased by MBK50 treatment compared to mutant control peptide or PBS treatment.

MYC = assay: Intracellular staining of MYC in LPS-activated THP-1 cells; assay type: cell-based; conditions: THP-1, LPS 100 ng/ml, 16 μM, 24 hours
From the text: as §1, §2

BC-1 cells = assay: SLAM-seq, active transcription of cellular genes; assay type: cell-based; conditions: 24 μM, 30 min then 4sU 1 hour, BC-1 (FIG. 9: BCBL-1 and BC1)
Description: FIG. 9. Profiling Peptide targets with Thiol(SH)-linked alkylation for the metabolic sequencing of RNA (SLAM seq). Differences in active transcription in presence of peptide drug was examined. […] Total RNA-sequence performed 24 hours after drug incubation.
Thiol(SH)-linked alkylation for the metabolic sequencing of RNA (SLAM seq), an orthogonal-chemistry-based RNA sequencing technology detects 4-thiouridine (s4U) incorporation in RNA species at single-nucleotide resolution. Using SLAM-seq method, BC-1 cells were incubated with peptide drug and peptide with three amino acid substitute to alanine was used as a control peptide. Peptide drug was incubated in BC-1 cell culture (24 μM) and after 30 min drug incubation, 4sU (300 μM in final concentration) was added into culture media for 1 hour. Total RNA was isolated in the end of 1 hour 4sU incubation and alkylated RNA samples were subjected to SLAM-seq. Samples were duplicated and changed gene expression vs mock-treated cells (P<0.05) was marked in red. […] IGV viewer was used to visualize sequence reads at MYC region (Chr. 8). […] Log 2 fold changes and adjusted P-value of MYC down regulation in both BCBL-1 and BC-1 cells are depicted in underneath of panel.

SWI/SNF components = assay: ELISA-based binding assay with purified SWI/SNF components; conditions: biotin-conjugated peptide, HRP-streptavidin detection
From the text: FIG. 17(a) SDS-PAGE analysis of five SWI/SNF components individually prepared from baculovirus infected Sf9 cells. FIG. 17(b) A schematic illustration of ELISA assay to evaluate VGN50 and SWI/SNF interaction. FIG. 17(c) Analysis of VGN50 binding to SWI/SNF components by ELISA. Peptide binding measured as OD values at 450 nm are shown. Mean OD values were compared between the VGN50 and Mut-P in each concentration using unpaired t-test. **p<0.01, *p<0.05, NS: no significance. Data are presented as mean±SD.
To confirm the basis of VGN50 (a.k.a. MBK50) mechanism of action, the biochemical interaction between VGN50 and SWI/SNF proteins (i.e., VGN50 target molecules), were examined by ELISA-based binding assays using purified 5 individual SWI/SNF components prepared from baculovirus-infected Sf9 cells (FIG. 17a). Increasing concentrations of biotin-conjugated VGN50 or Mut-P were incubated in an ELISA plate coated with each SWI/SNF component, and the bound peptides were detected by HRP-streptavidin (FIG. 17b).

[1] = system: Kaposi's sarcoma-associated herpesvirus (KSHV); assay: Total RNA-sequencing of peptide-resistant KSHV-infected B-cells; assay type: cell-based; conditions: continued peptide incubation, resistant cells vs parental cells
Description: FIG. 10. Peptide long-term treatment changes B-cell phenotype. RNA-seq was performed after generating peptide-drug resistant cell population.
The peptide sequence is based on KSHV transactivator protein sequence, and it is expected that the peptide will compete with viral transactivator protein for recruitment of cellular transactivation complex. We continued to incubate with peptide drug in KSHV-naturally infected B-cells and generated resistant cell line (RC). The resistant cells were then used to identify putative drug targets by comparing parental cells with total RNA-sequencing.

LSSILQGLYQLDT [MBK50]
decrease of CXCL10 (BCBL-1 PEL cells): ~200 fold | decrease of VEGFA (BCBL-1 PEL cells): ~4 fold | expression change of the majority of the 15 cytokines (BCBL-1 PEL cells): about 2 fold | PC analysis of 92 inflammatory protein expression profiles (BCBL-1 PEL cells; 20 days treatment): away from the cluster | number of cytokines significantly up- or down-regulated among 92 (BCBL-1 PEL cells; p<0.05): 15 | efficacy to target PEL in xenograft (BCBL-1 PEL cell line): demonstrated efficacies | toxicity to the host mice (BCBL-1 PEL cell line; xenograft studies): without any measurable toxicities | percentage of THP-1 cells with reduced IRF4 expression (IRF4): increased | MYC expression (MFI) (MYC): significantly reduced | cellular gene expression (active transcription) (BC-1 cells; listed as Wt-peptide): inhibited multiple cellular gene expression | cellular gene expression (active transcription) (BC-1 cells; listed as peptide drug): strongly inhibited active transcription | lowest concentration at which peptide bound the 5 SWI/SNF components (SWI/SNF components): 50 nM | latently infected KSHV gene expression [1]: significantly down-regulated
